The values below are quoted from earlier work in patent US11369617B2, “Prostacyclin analogue formulations” (CAMURUS AB, priority 2016, dated 2022).

The conditions of the series: regular s.c. administration.

Each structure is given as a SMILES string.

In the case of `CCCCC[C@H](O)CC[C@@H]1[C@H]2Cc3cccc(OCC(=O)O)c3C[C@H]2C[C@H]1O` [treprostinil], the “administration-site pain, patients experiencing it” value is given as 85 % of patients. For the same compound, the “withdrawals due to adverse events” value (almost all due to site pain) is 23 % of the long-term study population.
